Experimental data published in ChEMBL document CHEMBL1201862, “PubChem BioAssay data set” (2004).
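Tested at 5 concentrations; 48 h exposure; 96-well plates; endpoints linearly interpolated, else capped at highest concentration. At the GI50, growth is halved.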 Active and inactive are the calls of the source. Rule as the data show it: active = GI50 up to about 1.1 µM and inactive = higher.

Key:
Experiment in all cases: NCI-60 cell line screen, 48 h
[1] = test system: EKVX
[2] = test system: HOP-92
[3] = test system: COLO 205
[4] = test system: HOP-62
[5] = test system: Hs-578T
[6] = test system: NCI-H226
[7] = test system: A498
[8] = test system: A549
[9] = test system: ACHN
[10] = test system: CAKI-1
[11] = test system: CCRF-CEM
[12] = test system: DU-145
[13] = test system: HCC 2998
[14] = test system: HCT-15
[15] = test system: HL-60
[16] = test system: HT-29
[17] = test system: IGROV-1
[18] = test system: K562
[19] = test system: KM12
[20] = test system: LOX IMVI
[21] = test system: M14
[22] = test system: MCF7
[23] = test system: MDA-MB-231
[24] = test system: MDA-MB-435
[25] = test system: MDA-N
[26] = test system: MOLT-4
[27] = test system: NCI-H23
[28] = test system: NCI-H460
[29] = test system: NCI/ADR-RES
[30] = test system: OVCAR-3
[31] = test system: OVCAR-4
[32] = test system: OVCAR-5
[33] = test system: OVCAR-8
[34] = test system: PC-3
[35] = test system: RPMI-8226
[36] = test system: RXF 393
[37] = test system: SF-268
[38] = test system: SF-295
[39] = test system: SF-539
[40] = test system: SK-MEL-28
[41] = test system: SK-MEL-2
[42] = test system: SK-MEL-5
[43] = test system: SK-OV-3
[44] = test system: SNB-19
[45] = test system: SNB-75
[46] = test system: SR
[47] = test system: SW-620
[48] = test system: T47D
[49] = test system: TK-10
[50] = test system: U-251
[51] = test system: UACC-257
[52] = test system: UACC-62
[53] = test system: UO-31
[54] = test system: 786-0
[55] = test system: HCT-116
[56] = test system: Malme-3M
[57] = test system: NCI-H522
[58] = test system: SN12C

## CC(=O)c1c(-c2cccc3ccccc23)c(C#N)c(=S)n(C2OC(CO)C(O)C(O)C2O)c1-c1ccccc1 (stereo unspecified)
[1]
  GI50: 0.0509 µM (active)
[2]
  GI50: 13.5 µM (inactive)

## O=C1C=CC2C3C(=O)N(c4ccccc4)C(=O)C3C1N2Cc1ccccc1 (stereo unspecified)
[3]
  GI50: 3.1 µM (inactive)
[4]
  GI50: 3.72 µM (inactive)
[5]
  GI50: 3.51 µM (inactive)
[6]
  GI50: 8.07 µM (inactive)

## Cc1ccc(C(=O)N/N=C(\N=N\c2cccc(C)c2)c2ccc(N(CCC#N)CCC#N)cc2C)cc1
[7]
  GI50: 73.3 µM (inactive)
[8]
  GI50: > 100 µM (inactive)
[9]
  GI50: > 100 µM (inactive)
[10]
  GI50: > 100 µM (inactive)
[11]
  GI50: 59.8 µM (inactive)
[3]
  GI50: > 100 µM (inactive)
[12]
  GI50: 73.1 µM (inactive)
[1]
  GI50: 95.3 µM (inactive)
[13]
  GI50: > 100 µM (inactive)
[14]
  GI50: > 100 µM
[15]
  GI50: > 100 µM (inactive)
[4]
  GI50: > 100 µM (inactive)
[2]
  GI50: 34 µM (inactive)
[16]
  GI50: 34.4 µM (inactive)
[5]
  GI50: 51.9 µM (inactive)
[17]
  GI50: 34.3 µM (inactive)
[18]
  GI50: > 100 µM (inactive)
[19]
  GI50: 31.8 µM (inactive)
[20]
  GI50: 88.9 µM (inactive)
[21]
  GI50: 89.5 µM (inactive)
[22]
  GI50: 67.5 µM (inactive)
[23]
  GI50: > 100 µM (inactive)
[24]
  GI50: 26.4 µM (inactive)
[25]
  GI50: 54.7 µM (inactive)
[26]
  GI50: 38.9 µM (inactive)
[6]
  GI50: 55.2 µM (inactive)
[27]
  GI50: > 100 µM (inactive)
[28]
  GI50: 52.7 µM (inactive)
[29]
  GI50: > 100 µM (inactive)
[30]
  GI50: 78.9 µM (inactive)
[31]
  GI50: > 100 µM (inactive)
[32]
  GI50: > 100 µM (inactive)
[33]
  GI50: 43.3 µM (inactive)
[34]
  GI50: 58.3 µM (inactive)
[35]
  GI50: 49.9 µM (inactive)
[36]
  GI50: 89.1 µM (inactive)
[37]
  GI50: 59.6 µM (inactive)
[38]
  GI50: > 100 µM (inactive)
[39]
  GI50: 64.7 µM (inactive)
[40]
  GI50: 13.1 µM (inactive)
[41]
  GI50: 49.3 µM (inactive)
[42]
  GI50: 32.2 µM (inactive)
[43]
  GI50: > 100 µM (inactive)
[44]
  GI50: > 100 µM (inactive)
[45]
  GI50: 47.5 µM (inactive)
[46]
  GI50: 55.1 µM (inactive)
[47]
  GI50: 50.5 µM (inactive)
[48]
  GI50: 44 µM (inactive)
[49]
  GI50: > 100 µM (inactive)
[50]
  GI50: 47 µM (inactive)
[51]
  GI50: 58.9 µM (inactive)
[52]
  GI50: 57.1 µM (inactive)
[53]
  GI50: > 100 µM (inactive)

## NC1CC=C(COC(=O)C(O)(c2ccccc2)C2CC2)CC1 (stereo unspecified)
[54]
  GI50: > 100 µM (inactive)
[8]
  GI50: > 100 µM (inactive)
[9]
  GI50: > 100 µM (inactive)
[10]
  GI50: > 100 µM (inactive)
[3]
  GI50: > 100 µM (inactive)
[12]
  GI50: > 100 µM (inactive)
[1]
  GI50: > 100 µM (inactive)
[13]
  GI50: > 100 µM (inactive)
[55]
  GI50: > 100 µM (inactive)
[14]
  GI50: > 100 µM
[4]
  GI50: > 100 µM (inactive)
[16]
  GI50: > 100 µM (inactive)
[17]
  GI50: > 100 µM (inactive)
[19]
  GI50: > 100 µM (inactive)
[20]
  GI50: > 100 µM (inactive)
[21]
  GI50: > 100 µM (inactive)
[22]
  GI50: > 100 µM (inactive)
[23]
  GI50: > 100 µM (inactive)
[25]
  GI50: > 100 µM (inactive)
[26]
  GI50: > 100 µM (inactive)
[56]
  GI50: > 100 µM (inactive)
[6]
  GI50: > 100 µM (inactive)
[27]
  GI50: > 100 µM (inactive)
[57]
  GI50: > 100 µM (inactive)
[29]
  GI50: > 100 µM (inactive)
[30]
  GI50: > 100 µM (inactive)
[32]
  GI50: > 100 µM (inactive)
[33]
  GI50: > 100 µM (inactive)
[34]
  GI50: > 100 µM (inactive)
[35]
  GI50: > 100 µM (inactive)
[36]
  GI50: > 100 µM (inactive)
[37]
  GI50: > 100 µM (inactive)
[38]
  GI50: > 100 µM (inactive)
[39]
  GI50: > 100 µM (inactive)
[40]
  GI50: > 100 µM (inactive)
[42]
  GI50: > 100 µM (inactive)
[43]
  GI50: > 100 µM (inactive)
[58]
  GI50: > 100 µM (inactive)
[44]
  GI50: > 100 µM (inactive)
[45]
  GI50: > 100 µM (inactive)
[46]
  GI50: > 100 µM (inactive)
[47]
  GI50: > 100 µM (inactive)
[48]
  GI50: > 100 µM (inactive)
[49]
  GI50: > 100 µM (inactive)
[50]
  GI50: > 100 µM (inactive)
[51]
  GI50: > 100 µM (inactive)
[52]
  GI50: > 100 µM (inactive)
[53]
  GI50: > 100 µM (inactive)

## C=C1CCC2[C@](C)(CCC[C@]2(C)C(=O)O)[C@@H]1CCc1ccoc1 (stereo partly specified)
[54]
  GI50: 48.6 µM (inactive)
[7]
  GI50: 47 µM (inactive)
[8]
  GI50: 34.5 µM (inactive)
[9]
  GI50: 41.7 µM (inactive)
[10]
  GI50: 32.8 µM (inactive)
[11]
  GI50: 40.7 µM (inactive)
[3]
  GI50: 17.4 µM (inactive)
[12]
  GI50: 43.5 µM (inactive)
[1]
  GI50: 34.3 µM (inactive)
[13]
  GI50: 43.8 µM (inactive)
[55]
  GI50: 33.7 µM (inactive)
[14]
  GI50: 26.8 µM
[15]
  GI50: 45.8 µM (inactive)
[4]
  GI50: 40.6 µM (inactive)
[16]
  GI50: 24.2 µM (inactive)
[5]
  GI50: 33.2 µM (inactive)
[17]
  GI50: 32.4 µM (inactive)
[18]
  GI50: 53.5 µM (inactive)
[19]
  GI50: 18.7 µM (inactive)
[20]
  GI50: 16.9 µM (inactive)
[21]
  GI50: 41.1 µM (inactive)
[23]
  GI50: 49.2 µM (inactive)
[24]
  GI50: 41.3 µM (inactive)
[25]
  GI50: 61.8 µM (inactive)
[26]
  GI50: 32.5 µM (inactive)
[56]
  GI50: 32.2 µM (inactive)
[6]
  GI50: 20.6 µM (inactive)
[27]
  GI50: 21.4 µM (inactive)
[28]
  GI50: 33.9 µM (inactive)
[57]
  GI50: 68.5 µM (inactive)
[29]
  GI50: 38.5 µM (inactive)
[30]
  GI50: 24 µM (inactive)
[31]
  GI50: 48.6 µM (inactive)
[32]
  GI50: 90.6 µM (inactive)
[34]
  GI50: 46 µM (inactive)
[35]
  GI50: 44.7 µM (inactive)
[36]
  GI50: 36.2 µM (inactive)
[37]
  GI50: 50.4 µM (inactive)
[38]
  GI50: 47.5 µM (inactive)
[39]
  GI50: 37 µM (inactive)
[40]
  GI50: 61.1 µM (inactive)
[41]
  GI50: 29.4 µM (inactive)
[42]
  GI50: 36.6 µM (inactive)
[43]
  GI50: > 100 µM (inactive)
[58]
  GI50: 33.5 µM (inactive)
[44]
  GI50: 43.5 µM (inactive)
[45]
  GI50: 67.3 µM (inactive)
[46]
  GI50: 27 µM (inactive)
[47]
  GI50: 53.7 µM (inactive)
[48]
  GI50: 57.8 µM (inactive)
[49]
  GI50: 24.2 µM (inactive)
[51]
  GI50: 29 µM (inactive)
[52]
  GI50: 35.2 µM (inactive)
[53]
  GI50: 36.5 µM (inactive)
